# Assay results from patent US6727232B2, “Nucleoside peptide antibiotics of AA-896” (Wyeth Holdings Corporation, priority 2001, dated 2004).
# Tests used:
# Assay in all cases: Broth dilution MIC
# Type in all cases: cell-based
# K. pneumoniae GC 4534 = conditions: Klebsiella pneumoniae, GC4534; K. pneumoniae GC 4534; Mueller-Hinton broth, 18 hours at 35° C.; read-out: Antimicrobial Activity (MIC)
# Experimental: (§1) The in vitro antibacterial activity of Example 1 through Example 20 is determined against a spectrum of Gram-positive and Gram-negative bacteria by a standard broth dilution method. Serial dilution of the compounds are made in Mueller-Hinton broth and inoculated with a bacterial suspension. The lowest concentration of compound that inhibited the growth of a bacterial strain after 18 hours of incubation at 35° C. is reported as the minimal inhibitory concentration (MIC) for that strain.
# E. faecalis GC 842 = conditions: Enterococcus faecalis, GC842; E. faecalis GC 842; Mueller-Hinton broth, 18 hours at 35° C.; read-out: Antimicrobial Activity (MIC)
# Experimental: as §1
# E. cloacae GC 3783 = conditions: Enterobacter cloacae, GC3783; E. cloacae GC 3783; Mueller-Hinton broth, 18 hours at 35° C.; read-out: Antimicrobial Activity (MIC)
# Experimental: as §1
# E. coli GC 4560 = conditions: Escherichia coli, GC4560, 18 h, read-out: Antimicrobial Activity (MIC)
# Experimental: as §1
# CNS GC 4538 = conditions: CNS GC 4538; Mueller-Hinton broth, 18 hours at 35° C.; read-out: Antimicrobial Activity (MIC)
# Experimental: as §1
# CNS GC 4537 = conditions: CNS GC 4537; Mueller-Hinton broth, 18 hours at 35° C.; read-out: Antimicrobial Activity (MIC)
# Experimental: as §1
# S. aureus GC 1131 = conditions: Staphylococcus aureus, GC1131; S. aureus GC 1131; Mueller-Hinton broth, 18 hours at 35° C.; read-out: Antimicrobial Activity (MIC)
# Experimental: as §1
# S. aureus GC 4536 = conditions: Staphylococcus aureus, GC4536; S. aureus GC 4536; Mueller-Hinton broth, 18 hours at 35° C.; read-out: Antimicrobial Activity (MIC)
# Experimental: as §1
# P. aeruginosa GC 4532 = conditions: Pseudomonas aeruginosa, GC4532; P. aeruginosa GC 4532; Mueller-Hinton broth, 18 hours at 35° C.; read-out: Antimicrobial Activity (MIC)
# Experimental: as §1
# E. faecalis GC 2242 = conditions: Enterococcus faecalis, GC2242; E. faecalis GC 2242; Mueller-Hinton broth, 18 hours at 35° C.; read-out: Antimicrobial Activity (MIC)
# Experimental: as §1
# CNS GC 4547 = conditions: CNS GC 4547; Mueller-Hinton broth, 18 hours at 35° C.; read-out: Antimicrobial Activity (MIC)
# Experimental: as §1
# P. aeruginosa GC 2214 = conditions: Pseudomonas aeruginosa, GC2214; P. aeruginosa GC 2214; Mueller-Hinton broth, 18 hours at 35° C.; read-out: Antimicrobial Activity (MIC)
# Experimental: as §1
# E. coli GC 4559 = conditions: Escherichia coli, GC4559; E. coli GC 4559; Mueller-Hinton broth, 18 hours at 35° C.; read-out: Antimicrobial Activity (MIC)
# Experimental: as §1
# S. marcescens GC 4077 = conditions: Serratia marcescens, GC4077; S. marcescens GC 4077; Mueller-Hinton broth, 18 hours at 35° C.; read-out: Antimicrobial Activity (MIC)
# Experimental: as §1
# E. faecalis GC 4555 = conditions: Enterococcus faecalis, GC4555; E. faecalis GC 4555; Mueller-Hinton broth, 18 hours at 35° C.; read-out: Antimicrobial Activity (MIC)
# Experimental: as §1
# S. aureus GC 2216 = conditions: Staphylococcus aureus, GC2216; S. aureus GC 2216; Mueller-Hinton broth, 18 hours at 35° C.; read-out: Antimicrobial Activity (MIC)
# Experimental: as §1
# M. morganii GC 4531 = conditions: Morganella morganii, GC4531; M. morganii GC 4531; Mueller-Hinton broth, 18 hours at 35° C.; read-out: Antimicrobial Activity (MIC)
# Experimental: as §1
# E. coli GC 3226 = conditions: Escherichia coli, GC3226; E. coli GC 3226; Mueller-Hinton broth, 18 hours at 35° C.; read-out: Antimicrobial Activity (MIC)
# Experimental: as §1
# P. rettgeri GC 4530 = conditions: Providencia rettgeri, GC4530; P. rettgeri GC 4530; Mueller-Hinton broth, 18 hours at 35° C.; read-out: Antimicrobial Activity (MIC)
# Experimental: as §1
# E. coli GC 2203 = conditions: Escherichia coli, GC2203; E. coli GC 2203; Mueller-Hinton broth, 18 hours at 35° C.; read-out: Antimicrobial Activity (MIC)
# Experimental: as §1
Compound,MIC (K. pneumoniae GC 4534),MIC (E. faecalis GC 842),MIC (E. cloacae GC 3783),MIC (E. coli GC 4560),MIC (CNS GC 4538),MIC (CNS GC 4537),MIC (S. aureus GC 1131),MIC (S. aureus GC 4536),MIC (P. aeruginosa GC 4532),MIC (E. faecalis GC 2242),MIC (CNS GC 4547),MIC (P. aeruginosa GC 2214),MIC (E. coli GC 4559),MIC (S. marcescens GC 4077),MIC (E. faecalis GC 4555),MIC (S. aureus GC 2216),MIC (M. morganii GC 4531),MIC (E. coli GC 3226),MIC (P. rettgeri GC 4530),MIC (E. coli GC 2203)
"CCCCCNC[C@H]1OC(O[C@H](C(C(=O)O)N(CCCCC)CCCNC(=O)C(NC(=O)C(NC(=O)NC(C(=O)O)C(C)C)C2CCNC(=N)N2)C(O)C(C)C)[C@H]2O[C@@H](n3ccc(=O)[nH]c3=O)[C@H](O)[C@@H]2O)[C@H](OC)[C@H]1O (stereo partly drawn) [Example 17, 16-[(R)-{(2S,3S,4R,5R)-5-[2,4-Dioxo-3,4-dihydro-1 (2H)-pyrimidinyl]-3,4-dihydroxytetrahydro-2-furanyl}({(3R,4S,5R)-4-hydroxy-3-methoxy-5-[(pentylamino)methyl]tetrahydro-2-furanyl}oxy)methyl]-9-(1-hydroxy-2-methylpropyl)-6-(2-iminohexahydro-4-pyrimidinyl)-2-isopropyl-4,7,10-trioxo-15-pentyl-3,5,8,11,15-pentaazaheptadecane-1,17-dioic Acid]",> 32 mg/L,> 32 mg/L,> 32 mg/L,32 mg/L,> 32 mg/L,> 32 mg/L,> 32 mg/L,> 32 mg/L,> 32 mg/L,32 mg/L,32 mg/L,> 32 mg/L,> 32 mg/L,> 32 mg/L,> 32 mg/L,> 32 mg/L,> 32 mg/L,> 32 mg/L,> 32 mg/L,> 32 mg/L
"CO[C@H]1C(O[C@H](C(C(=O)O)N(CCCCCCCCCCCC[N+]2(C)CCOCC2)CCCNC(=O)C(NC(=O)C(NC(=O)NC(C(=O)O)C(C)C)C2CCNC(=N)N2)C(O)C(C)C)[C@H]2O[C@@H](n3ccc(=O)[nH]c3=O)[C@H](O)[C@@H]2O)O[C@H](CN)[C@@H]1O (stereo partly drawn) [Example 10, 4-[13-((2R)-2-{[(3R,4S,5R)-5-(Aminomethyl)-4-hydroxy-3-methoxytetrahydro-2-furanyl]oxy}-1-carboxy-2-{(2S,3S,4R,5R)-5-[2,4-dioxo-3,4-dihydro-1 (2H)-pyrimidinyl]-3,4-dihydroxytetrahydro-2-furanyl}ethyl)-26-carboxy-19-(1-hydroxy-2-methylpropyl)-22-(2-iminohexahydro-4-pyrimidinyl) -27-methyl-18,21,24-trioxo-13,17,20,23,25-pentaazaoctacos-1-yl]-4-methylmorpholin-4-ium]",> 32 mg/L,> 32 mg/L,> 32 mg/L,16 mg/L,> 32 mg/L,> 32 mg/L,> 32 mg/L,> 32 mg/L,> 32 mg/L,> 32 mg/L,> 32 mg/L,> 32 mg/L,> 32 mg/L,> 32 mg/L,> 32 mg/L,> 32 mg/L,> 32 mg/L,> 32 mg/L,> 32 mg/L,> 32 mg/L
"CCCCCN1C(=O)C([C@@H](OC2O[C@H](CN)[C@H](O)[C@H]2OC)[C@H]2O[C@@H](n3ccc(=O)[nH]c3=O)[C@H](O)[C@@H]2O)N(CCCNC(=O)C(NC(=O)C(NC(=O)NC(C(=O)O)C(C)C)C2CCNC(=N)N2)C(O)C(C)C)C1=O (stereo partly drawn) [Example 2, 14-[5-((R)-{[(3R,4S,5R)-5-(Aminomethyl)-4-hydroxy-3-methoxytetrahydro-2furanyl]oxy}{(2S,3S,4R,5R)-5-[2,4-dioxo-3,4-dihydro-1 (2H)-pyrimidinyl]-3,4-dihydroxytetrahydro-2-furanyl}methyl)-2,4-dioxo-3-pentyl-1-imidazolidinyl]-9-(1-hydroxy-2-methylpropyl)-6-(2-iminohexahydro-4-pyrimidinyl)-2-isopropyl-4,7,10-trioxo-3,5,8,11-tetraazatetradecan-1-oic acid]",> 32 mg/L,> 32 mg/L,> 32 mg/L,32 mg/L,> 32 mg/L,> 32 mg/L,> 32 mg/L,> 32 mg/L,> 32 mg/L,> 32 mg/L,> 32 mg/L,> 32 mg/L,> 32 mg/L,> 32 mg/L,> 32 mg/L,> 32 mg/L,> 32 mg/L,> 32 mg/L,> 32 mg/L,> 32 mg/L
"CCCCCCCCCCCCN1C(=O)C([C@@H](OC2O[C@H](CN)[C@H](O)[C@H]2OC)[C@H]2O[C@@H](n3ccc(=O)[nH]c3=O)[C@H](O)[C@@H]2O)N(CCCNC(=O)C(NC(=O)C(NC(=O)NC(C(=O)O)C(C)C)C2CCNC(=N)N2)C(O)C(C)C)C1=O (stereo partly drawn) [Example 5, 14-[5-((R)-{[(3R,4S,5R)-5-(Aminomethyl)-4-hydroxy-3-methoxytetrahydro-2-furanyl]oxy}{(2S,3S,4R,5R)-5-[2,4-dioxo-3,4-dihydro-1 (2H)-pyrimidinyl]-3,4-dihydroxytetrahydro-2-furanyl}methyl)-3-dodecyl-2,4-dioxo-1-imidazolidinyl]-9-(1-hydroxy-2-methylpropyl)-6-(2-iminohexahydro-4-pyrimidinyl)-2-isopropyl-4,7,10-trioxo-3,5,8,11-tetraazatetradecan-1-oic acid]",> 32 mg/L,> 32 mg/L,> 32 mg/L,4 mg/L,> 32 mg/L,> 32 mg/L,> 32 mg/L,> 32 mg/L,> 32 mg/L,> 32 mg/L,> 32 mg/L,> 32 mg/L,> 32 mg/L,> 32 mg/L,> 32 mg/L,> 32 mg/L,> 32 mg/L,> 32 mg/L,> 32 mg/L,> 32 mg/L
"CO[C@H]1C(O[C@H](C(C(=O)O)N(CCCNC(=O)C(NC(=O)C(NC(=O)NC(C(=O)O)C(C)C)C2CCNC(=N)N2)C(O)C(C)C)Cc2ccccc2)[C@H]2O[C@@H](n3ccc(=O)[nH]c3=O)[C@H](O)[C@@H]2O)O[C@H](CNCc2ccccc2)[C@@H]1O (stereo partly drawn) [Example 20B, 15-Benzyl-16-((R)-({(3R,4S,5R)-5-[(benzylamino)methyl]-4-hydroxy-3-methoxytetrahydro-2-furanyl}oxy){(2S,3S,4R,5R)-5-[2,4-dioxo-3,4-dihydro-1 (2H)-pyrimidinyl]-3,4-dihydroxytetrahydro-2-furanyl}methyl)-9-(1-hydroxy-2-methylpropyl)-6-(2-iminohexahydro-4-pyrimidinyl)-2-isopropyl-4,7,10-trioxo-3,5,8,11,15-pentaazaheptadecane-1,17-dioic Acid]",> 32 mg/L,> 32 mg/L,> 32 mg/L,32 mg/L,> 32 mg/L,> 32 mg/L,> 32 mg/L,> 32 mg/L,> 32 mg/L,> 32 mg/L,> 32 mg/L,> 32 mg/L,> 32 mg/L,> 32 mg/L,> 32 mg/L,> 32 mg/L,> 32 mg/L,> 32 mg/L,> 32 mg/L,> 32 mg/L
